The subject of one assay is phospho-ERK in AGS cells. Nature of the assay: pERK In Cell Western (ICW) assay (Method B), AGS. It counts as cell-based. The conditions noted are these: Homo sapiens, Table 2, 3 hours. Here is the method:
pERK ICW is a high throughput screening assay to evaluate the cellular potency of mutant KRAS small molecule inhibitors. KRAS mutant cell lines AGS, GP2D (KRAS-G12D) as well as SW620 (KRAS-G12V) were purchased from ATCC and maintained respectively in RPMI/DMEM/RPMI medium supplemented with 10% fetal bovine serum.
Cells grown in exponential phase were trypsinized, resuspended in fresh media, and viable cells were counted using a cell counter with Trypan Blue (BioRad TC20). Cells were seeded into 384-well plate (Greiner 781091) at density of 5,000 cells/well for AGS and 10,000 cells/well for GP2D/SW620 and allowed to grow overnight in a 37° C. CO2 incubator. The next day, compounds were dispensed into wells with a ½ log, 9-point serial dilution using a Tecan D300e dispenser and incubated for 3 hours in a 37° C. CO2 incubator. Cells were then fixed with paraformaldehyde (Electron Microscopy Sciences, 15710, 4% final concentration) for 30 min, permeabilized with wash buffer (1×PBS+0.1% Triton X-100) for 30 min and blocked with Odyssey blocking buffer (Li—COR 927-70001) for 1 hour, all at room temperature (RT). Phospho-ERK antibody (CST 4370L) was diluted 1:500 in Odyssey T20 (PBS) antibody diluent (Li—COR 927-75001) and incubated with cells overnight at 4° C. The next day, plates were washed 5× with wash buffer, incubated with IRDye 800 CW, Goat anti-Rabbit secondary antibody (Li—COR 926-32211, 1:800) and DRAQ5 (CST 4084L, 1:5,000) diluted in Odyssey T20 (PBS) antibody diluent for 1 hour, washed 5×, and imaged on an Odyssey CLx imaging system.
For data analysis, signal intensities from 800 (phosphor-ERK) and 700 (DRAQ5) channels were extracted, and phospho-ERK signals were normalized to DRAQ5 signals for each well and percent of blank control values were computed. Data were then imported into Graphpad Prism to compute half-maximal inhibitory concentrations (IC50) using a 4-parameter variable slope model. Z-factor for each plate was computed from signals derived from wells treated with either DMSO or 5 μM of control compound. AGS pERK ICW (Method B) IC50 (uM) values of selected compounds are depicted in Table 2 with compounds having a value ≥0.001 uM to 0.01 uM as ++++; ≥0.01 uM to 0.1 uM as +++; ≥0.1 uM to 1 uM as ++; ≥1 uM to 10 uM as + and ≥10 uM as NA.

Assay [1] concerns the target GST-tagged KRAS-G12V (2-169) (Homo sapiens, UniProt P01116, G12V). Nature of the assay: Nucleotide exchange assay (NEA), SOS-mediated, HTRF, KRAS G12V. Conditions: Table 4; IC50 extracted at 90 min; 80 nM SOS. It counts as biochemical. The essentials:
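GST-KRAS-G12V (2-169), 0.25 nM, pre-incubated 1 h at RT with compound, then SOS1cat (564-1049) 80 nM and GTP-DY-647P1 150 nM added in HEPES pH 7.3 buffer with MgCl2 and DTT. HTRF via anti-GST Tb cryptate read over 90 min; IC50 from 4-parameter fit at 90 min, blanked to no-SOS reactions.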

The next assay addresses T1, KRAS G12D/RAF1 (Homo sapiens, UniProt P01116, G12D).
T1 construct: KRAS (1-169) proteins were expressed in BL21 (DE3)-CodonPlus E. coli; His6-MBP (N, cleaved yes)
As to the kind of experiment: Protein-protein interaction (PPI) HTRF assay KRAS G12D/RAF1. The format is binding. The conditions noted are these: Table 2. Here is the method:
(§1) When RAS proteins are in the active GTP-bound conformation, they bind the effector protein RAF1 at the N-terminus Ras-binding domain (RBD, residues 52-131) (Tran, et al., 2021). Homogenous time resolved fluorescence (HTRF) was used to monitor the interaction between wt or mutant KRAS and RAF1 or wt NRAS and RAF1. Compounds were assayed in the presence of KRAS G12D/V and RAF1 versus wt KRAS to assess activity against mutant and w.t. KRAS. Similarly, compounds were then assayed in the presence of w.t. NRAS and RAF1 to assess RAS isoform selectivity. In all assay formats, His-tagged RAF1 protein was incubated with the HTRF donor, anti-6His Tb Cryptate gold (Cisbio 61DB10RDF), and biotinylated RAS proteins were incubated with the HTRF acceptor, streptavidin-d2 (CisBio 610SADLA). The intensity of the fluorescence signal emitted is proportional to binding between the two proteins. The donor solution was prepared by mixing 16 nM His-tagged RAF1 in protein dilution buffer with 1:100 anti-6His Tb cryptate in PPI-Terbium detection buffer. 16 nM biotinylated RAS protein was diluted into protein dilution buffer (50 mM Tris-HCl pH 7.5, 150 mM NaCl, 0.1 mM MgCl2, 1 mM TCEP, 0.005% Tween20) and mixed with 1:2000 Streptavidin-d2 diluted in PPI-Terbium detection buffer (CisBio 61DB10RDF). 50× compound in DMSO was mixed with 16 nM KRAS-acceptor solution and incubated for 30 minutes at room temperature. After compound pre-incubation with KRAS, the RAF1 donor solution was added to the KRAS-acceptor solution and incubated for 1 hour at room temperature. The fluorescence signal emitted was monitored at 665 nm and 615 nm using an Envision multimode plate reader. The HTRF ratio (665/615) was calculated and normalized to 0% inhibition in the absence of compound and 100% inhibition in the presence of untagged RAF1 protein. PPI KRAS G12D/RAF1, KRAS G12V/RAF1, w.t. KRAS/RAF1 and NRAS/RAF1 IC50 (uM) values of selected compounds are depicted in Table 3 and Table 4 with compounds having a value <0.1 uM as ++++; ≥0.1 uM to 1 uM as +++; ≥1 uM to 10 uM as ++; ≥10 uM to 100 uM as +; and ≥100 uM as NA.

The target in the next assay is T2, w.t. KRAS/RAF1 (Homo sapiens, UniProt P01116).
T2 construct: KRAS (1-169) proteins were expressed in BL21 (DE3)-CodonPlus E. coli; His6-MBP (N, cleaved yes)
T2 sequence (P01116 with tags, fused parts or gaps isoform P01116-2): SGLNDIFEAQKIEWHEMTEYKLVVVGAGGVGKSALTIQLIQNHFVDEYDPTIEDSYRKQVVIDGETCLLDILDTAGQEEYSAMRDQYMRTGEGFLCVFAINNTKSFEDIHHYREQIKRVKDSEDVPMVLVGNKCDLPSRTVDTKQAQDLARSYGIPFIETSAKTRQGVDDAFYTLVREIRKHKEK
Nature of the assay: Protein-protein interaction (PPI) HTRF assay w.t. KRAS/RAF1. It counts as binding. The conditions noted are these: Table 3; wt KRAS/RAF1. Here is the method:
as §1
A general note: Time-resolved FRET reads energy transfer from a long-lived donor to a nearby acceptor.

The subject of assay [2] is phospho-ERK in GP2D (KRAS-G12D) cells. Nature of the assay: pERK In Cell Western (ICW) assay (Method B), GP2D. The format is cell-based. Conditions: GP2d, 3 h, Table 4. The gist of the method: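 3 h cpd, 37 °C, ½-log 9-pt dilution; AGS 5,000 cells/well, GP2D/SW620 10,000 cells/well, plated overnight. PFA fix, Triton perm, anti-pERK o/n 4 °C, IRDye 800 secondary + DRAQ5. pERK/DRAQ5 as % blank; IC50 4-PL.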

The next assay deals with T3, KRAS G12V/RAF1 (Homo sapiens, UniProt P01116, G12V).
T3 construct: KRAS (1-169) proteins were expressed in BL21 (DE3)-CodonPlus E. coli; His6-MBP (N, cleaved yes)
T3 sequence (P01116 with tags, fused parts or gaps isoform P01116-2 G12V): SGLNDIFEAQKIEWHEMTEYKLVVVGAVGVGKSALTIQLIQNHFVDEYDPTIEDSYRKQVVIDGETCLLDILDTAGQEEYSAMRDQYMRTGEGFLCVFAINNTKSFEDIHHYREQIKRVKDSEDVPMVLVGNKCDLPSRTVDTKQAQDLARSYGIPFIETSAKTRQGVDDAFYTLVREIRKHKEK
Nature of the assay: Protein-protein interaction (PPI) HTRF assay KRAS G12V/RAF1. The format is binding. Conditions: Table 3. Here is the method: as §1

Assay [3] deals with GST-tagged KRAS-G12D (2-169) (Homo sapiens, UniProt P01116, G12D). Nature of the assay: Nucleotide exchange assay (NEA), SOS-mediated, HTRF, KRAS G12D. The format is biochemical. The conditions noted are these: IC50 extracted at 30 min, 20 nM SOScat. The gist of the method:
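Compound preincubated 1 h at RT with 0.25 nM GST-KRAS-G12D (2-169) and anti-GST Tb donor, then 20 nM SOS1cat (564-1049) and 150 nM GTP-DY-647P1 added; pH 7.3 HEPES buffer with MgCl2 and DTT. HTRF monitored at RT; % inhibition versus DMSO and no-SOS blank, 4-parameter IC50 taken at 30 min.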

The target in a further assay is T4, NRAS/RAF1 (Homo sapiens, UniProt P01111).
T4 construct: (1-169); His6-SUMO (N, cleaved yes)
T4 sequence (P01111 with tags, fused parts or gaps): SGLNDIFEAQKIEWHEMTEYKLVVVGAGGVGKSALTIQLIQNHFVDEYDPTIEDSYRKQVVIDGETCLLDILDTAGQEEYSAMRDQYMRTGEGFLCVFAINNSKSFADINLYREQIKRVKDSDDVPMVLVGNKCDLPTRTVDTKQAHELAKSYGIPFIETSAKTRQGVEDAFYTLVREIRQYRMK
As to the kind of experiment: Protein-protein interaction (PPI) HTRF assay w.t. NRAS/RAF1. Conditions: Table 3; wt NRAS/RAF1. It counts as binding. Here is the method: as §1

Where [4] appears, read: Table 2, read-out: NEA-G12D (uM) IC50.
Setting [5] is: Table 4, read-out: NEA G12D IC50.

By IC50 is commonly meant the concentration that inhibits the measured activity by half.

Where two headings read alike, the source gives them in different places.

T1 sequence (P01116 with tags, fused parts or gaps isoform P01116-2 G12D): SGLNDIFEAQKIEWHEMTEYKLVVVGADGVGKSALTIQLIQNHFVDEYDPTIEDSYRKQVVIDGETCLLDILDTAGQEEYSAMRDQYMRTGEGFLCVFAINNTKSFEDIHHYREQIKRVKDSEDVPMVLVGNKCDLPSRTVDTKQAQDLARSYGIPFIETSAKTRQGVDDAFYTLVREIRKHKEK
Sequence of GST-tagged KRAS-G12D (2-169) (P01116 2-169 isoform P01116-2 G12D): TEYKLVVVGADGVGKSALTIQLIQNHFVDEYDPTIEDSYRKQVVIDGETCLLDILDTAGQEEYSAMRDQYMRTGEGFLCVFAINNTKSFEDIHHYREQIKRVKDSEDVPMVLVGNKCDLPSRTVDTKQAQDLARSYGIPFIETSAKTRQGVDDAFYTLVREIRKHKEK
Sequence of GST-tagged KRAS-G12V (2-169) (P01116 2-169 isoform P01116-2 G12V): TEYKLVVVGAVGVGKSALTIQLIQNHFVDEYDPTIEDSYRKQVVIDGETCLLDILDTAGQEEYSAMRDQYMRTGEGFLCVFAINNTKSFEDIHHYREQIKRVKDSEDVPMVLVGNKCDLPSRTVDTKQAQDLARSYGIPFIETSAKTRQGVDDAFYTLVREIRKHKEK

Turning to `CC1(CO)CCCN(c2nc(OC[C@@]34CCCN3C[C@H](F)C4)nc(N3CC4(CCc5sc(N)c(C#N)c54)C3)n2)C1` (stereo partly drawn) [Compound 18, 2-amino-1′-[4-[[(2R)-2-fluoro-1,2,3,5,6,7-hexahydropyrrolizin-8-yl]methoxy]-6-[3-(hydroxymethyl)-3-methyl-1-piperidyl]-1,3,5-triazin-2-yl]spiro[5,6-dihydrocyclopenta[b]thiophene-4,3′-azetidine]-3-carbonitrile], the IC50 with phospho-ERK in AGS cells lay within 1 to 10 µM; in assay [1], 10 to 100 nM; against KRAS G12D/RAF1, 1 to 10 µM; against w.t. KRAS/RAF1, 1 to 10 µM; in assay [2], 1000 to 20000 nM; on KRAS G12V/RAF1 it was 1 to 10 µM. Moreover, the IC50 in assay [3] (setting [4]) and in assay [3] (setting [5]) was 0.01 to 0.1 µM in each case.
`N#Cc1c(N)sc2c1C1(CC2)CN(c2nc(OC[C@@]34CCCN3C[C@H](F)C4)nc(N3CC[C@@H](O)[C@@H](O)C3)n2)C1` (racemic) [Compound 22, 2-amino-1′-[4-[rac-(3S,4R)-3,4-dihydroxy-1-piperidyl]-6-[[(2R,8S)-2-fluoro-1,2,3,5,6,7-hexahydropyrrolizin-8-yl]methoxy]-1,3,5-triazin-2-yl]spiro[5,6-dihydrocyclopenta[b]thiophene-4,3′-azetidine]-3-carbonitrile]: the IC50 in the assay with phospho-ERK in AGS cells was in the range of 1 to 10 µM; in assay [1] it was 10 to 100 nM; at KRAS G12D/RAF1 it was 1 to 10 µM; at w.t. KRAS/RAF1, 1 to 10 µM; in assay [2] it was 1000 to 20000 nM; against KRAS G12V/RAF1, 10 to 100 µM. In addition, the IC50 in assay [3] (setting [4]) and in assay [3] (setting [5]) was 0.01 to 0.1 µM each time.
For the compound `CN(C)C(=O)c1nn2c(c1Cl)CN(c1nc(OC[C@@]34CCCN3C[C@H](F)C4)nc(N3CC4(CCc5sc(N)c(C#N)c54)C3)n1)CCC2` [Compound 5, 5-[4-(2-amino-3-cyano-spiro[5,6-dihydrocyclopenta[b]thiophene-4,3′-azetidine]-1′-yl)-6-[[(2R,8S)-2-fluoro-1,2,3,5,6,7-hexahydropyrrolizin-8-yl]methoxy]-1,3,5-triazin-2-yl]-3-chloro-N,N-dimethyl-4,6,7,8-tetrahydropyrazolo[1,5-a][1,4]diazepine-2-carboxamide], the half-inhibitory concentration (IC50) in the assay on phospho-ERK in AGS cells is 0.1 to 1 µM; on KRAS G12D/RAF1 it was 10 to 100 µM; at NRAS/RAF1, above 100 µM; in assay [3] (setting [4]) it was below 0.01 µM.
The matching figures for `N#Cc1c(N)sc(Cl)c1C1CCN(c2nc(OCC3(CN4CCOCC4)CC3)nc(N3C[C@H]4CC[C@@H](C3)N4)n2)C1` (stereo partly drawn) [Compound 4, 2-amino-5-chloro-4-[1-[4-[[1-(morpholinomethyl)cyclopropyl]methoxy]-6-[(1R,5S)-3,8-diazabicyclo[3.2.1]octan-3-yl]-1,3,5-triazin-2-yl]pyrrolidin-3-yl]thiophene-3-carbonitrile]: 1 to 10 µM, 1 to 10 µM, above 100 µM and below 0.01 µM.

Source of the values: patent US12421254B2, “KRAS modulators and uses thereof” (Quanta Therapeutics, Inc., priority 2023, dated 2025).
